Source: US9376415B2, “Tricyclic condensed heterocyclic compound, process of producing same, and use thereof” (NIPPON SUISAN KAISHA, LTD., priority 2009, dated 2016)

Columns and labels:
Format in all cases: cell-based
[1] = tested on: HT-29; assay: Cell growth inhibitory activity (Almar Blue), HT-29; conditions: Homo sapiens; HT-29 cancer cells, cultured for 72 hours
Procedure: (§1) The cell growth inhibitory activity of Compound 1 was evaluated using 4 types of cancer cells. The cancer cells used were human cancer cells (HT-29, A431, NCI-H460, […]). Compound 1 was dissolved in DMSO. One hundred […] of a suspension of cancer cells was charged in each 96 well micro plate (1.0 to 3.0×10^3 cells/well). After 24 hours, each of solutions of Compounds 1 to 6 was added in an amount of 2 ml to 100 ml of culture fluid to give final concentrations of […] and cultured for 72 hours. Thereafter, 20 ml of an Almar Blue reagent was added to each solution, followed by culturing for 6 hours.
The cell growth inhibitory activity of Compound 6 was evaluated using cancer cells (HT-29). The method for the evaluation was the same as the method by which Compound 1 was evaluated.

[2] = tested on: NCI-H460; assay: Cell growth inhibitory activity (Almar Blue), NCI-H460; conditions: Homo sapiens; NCI-H460 cancer cells, cultured for 72 hours
Procedure: as §1

[3] = tested on: U937; assay: Cell growth inhibitory activity (Almar Blue), U937; conditions: Homo sapiens, U-937; U937 cancer cells, cultured for 72 hours
Procedure: as §1

[4] = tested on: PC-3; assay: Cell growth inhibitory activity (Almar Blue), PC-3; conditions: Homo sapiens; PC-3 cancer cells, cultured for 72 hours

| IC50 [1] | IC50 [2] | IC50 [3] | IC50 [4] | Compound |
| --- | --- | --- | --- | --- |
| 590 nM | 580 nM | 1100 nM | 820 nM | C/C=C(/C)C1OC2C(C)=CC(C)(/C=C/C(=O)O)C3C(C)=CC1(C)C23C (centres unmarked) [Compound 1] |
| 310 nM |  |  |  | C=C1C(O)C(C)(/C=C/C(=O)O)C2C(C)=CC3(C)C(/C(C)=C\C)OC1C23C (centres unmarked) [Compound 6] |
